Measurements reported in patent US7157453B2, “Urea substituted imidazoquinolines” (3M Innovation Properties Company, priority 1999, dated 2007).
Where a name gives a salt, the structure may show the parent alone.

Assays:
interferon (α) = assay: Cytokine Induction in Human Cells: interferon (α) by ELISA; assay type: cell-based; details: PBMC; human PBMCs, incubated 18 to 24 hours, lowest concentration found to induce interferon
From the text: (§1) An in vitro human blood cell system was used to assess cytokine induction by compounds of the invention. Activity is based on the measurement of interferon and tumor necrosis factor (α) (IFN and TNF, respectively) secreted into culture media as described by Testerman et. al. In “Cytokine Induction by the Immunomodulators Imiquimod and S-27609”, Journal of Leukocyte Biology, 58, 365–372 (September, 1995).
(§2) Whole blood is collected by venipuncture into EDTA vacutainer tubes from healthy human donors. Peripheral blood mononuclear cells (PBMCs) are separated from whole blood by density gradient centrifugation using Histopaque®-1077 (Sigma Chemicals, St. Louis, Mo.). The PBMCs are suspended at 3–4×10^6 cells/mL in RPMI 1640 medium containing 10% fetal bovine serum, 2 mM L-glutamine and 1% penicillin/streptomycin solution (RPMI complete). The PBMC suspension is added to 48 well flat bottom sterile tissue culture plates (Costar, Cambridge, Mass. or Becton Dickinson Labware, Lincoln Park, N.J.) containing an equal volume of RPMI complete media containing test compound.
(§3) The compounds are solubilized in dimethyl sulfoxide (DMSO). The DMSO concentration should not exceed a final concentration of 1% for addition to the culture wells.
(§4) The solution of test compound is added at 60 μM to the first well containing RPMI complete and serial (three fold or ten fold) dilutions are made. The PBMC suspension is then added to the wells in an equal volume, bringing the test compound concentrations to the desired range. The final concentration of PBMC suspension is 1.5–2×10^6 cells/mL. The plates are covered with sterile plastic lids, mixed gently and then incubated for 18 to 24 hours at 37° C. in a 5% carbon dioxide atmosphere.
(§5) Following incubation the plates are centrifuged for 5–10 minutes at 1000 rpm (˜200×g) at 4° C. The cell culture supernatant is removed with a sterile polypropylene pipet and transferred to sterile polypropylene tubes. Samples are maintained at −30 to −70° C. until analysis. The samples are analyzed for interferon (α) and tumor necrosis factor (α) by ELISA
Interferon (α) concentration is determined by ELISA using a Human Multi-Species kit from PBL Biomedical Laboratories, New Brunswick, N.J.
(§6) The table below lists the lowest concentration found to induce interferon and the lowest concentration found to induce tumor necrosis factor for each compound.

[1] = test system: tumor necrosis factor (α); assay: Cytokine Induction in Human Cells: tumor necrosis factor (α) by ELISA; assay type: cell-based; details: PBMC; human PBMCs, incubated 18 to 24 hours, lowest concentration found to induce tumor necrosis factor
From the text: as §1, §2, §3, §4, §5
Tumor necrosis factor (α) (TNF) concentration is determined using ELISA kits available from Genzyme, Cambridge, Mass.; R&D Systems, Minneapolis, Minn.; or Pharmingen, San Diego, Calif.
as §6

Row | Compound | melting point | minimal effective concentration (interferon (α)) | minimal effective concentration [1]
1 | Nc1nc2ccccc2c2c1ncn2CCCCNC(=O)Oc1cccc2ccccc12 | 89 to 92 °C |  | 
2 | CCCCc1nc2c(N)nc3ccccc3c2n1CCCCNC(=O)NCc1ccc(OC)cc1 [Example 89] |  | 0.1 µM | 10 µM
3 | COCCc1nc2c(N)nc3ccccc3c2n1CCCCNC(=O)NC12CC3CC(CC(C3)C1)C2 [Example 100] |  | 0.001 µM | 10 µM
4 | CCNC(=O)NCCCCn1c(CCOC)nc2c(N)nc3ccccc3c21 [Example 101] |  | 0.01 µM | 1 µM
5 | CCCNC(=O)NCCCCn1c(CCOC)nc2c(N)nc3ccccc3c21 [Example 102] |  | 0.001 µM | 1 µM
6 | CCCCNC(=O)NCCCCn1c(CCOC)nc2c(N)nc3ccccc3c21 [Example 103] |  | 0.0001 µM | 0.1 µM
7 | COCCc1nc2c(N)nc3ccccc3c2n1CCCCNC(=O)Nc1ccccc1 [Example 104] |  | 0.0001 µM | 1 µM
8 | COCCc1nc2c(N)nc3ccccc3c2n1CCCCNC(=O)NC1CCCCC1 [Example 105] |  | 0.001 µM | 1 µM
9 | COCCc1nc2c(N)nc3ccccc3c2n1CCCCNC(=O)Nc1cccc(C)c1 [Example 106] |  | 0.0001 µM | 1 µM
10 | COCCc1nc2c(N)nc3ccccc3c2n1CCCCNC(=O)Nc1cccc(F)c1 [Example 107] |  | 0.0001 µM | 1 µM
11 | COCCc1nc2c(N)nc3ccccc3c2n1CCCCNC(=O)Nc1cccc(C#N)c1 [Example 108] |  | 0.0001 µM | 0.0001 µM
12 | COCCc1nc2c(N)nc3ccccc3c2n1CCCCNC(=O)Nc1ccc(C#N)cc1 [Example 109] |  | 0.0001 µM | 0.1 µM
13 | COCCc1nc2c(N)nc3ccccc3c2n1CCCCNC(=O)N[C@H](C)c1ccccc1 [Example 110] |  | 0.001 µM | 1 µM
14 | COCCc1nc2c(N)nc3ccccc3c2n1CCCCNC(=O)N[C@@H](C)c1ccccc1 [Example 111] |  | 0.001 µM | 1 µM
15 | COCCc1nc2c(N)nc3ccccc3c2n1CCCCNC(=O)Nc1ccccc1Cl [Example 112] |  | 0.0001 µM | 0.1 µM
16 | COCCc1nc2c(N)nc3ccccc3c2n1CCCCNC(=O)Nc1ccc(Cl)cc1 [Example 113] |  | 0.0001 µM | 1 µM
17 | COCCc1nc2c(N)nc3ccccc3c2n1CCCCNC(=O)Nc1cccc([N+](=O)[O-])c1 [Example 114] |  | 0.0001 µM | 0.01 µM
18 | COCCc1nc2c(N)nc3ccccc3c2n1CCCCNC(=O)Nc1ccc([N+](=O)[O-])cc1 [Example 115] |  | 0.0001 µM | 1 µM
19 | COCCc1nc2c(N)nc3ccccc3c2n1CCCCNC(=O)Nc1cccc(C(F)(F)F)c1 [Example 116] |  | 0.0001 µM | 1 µM
20 | COCCc1nc2c(N)nc3ccccc3c2n1CCCCNC(=O)Nc1ccc(C(F)(F)F)cc1 [Example 117] |  | 10 µM | 10 µM
21 | COCCc1nc2c(N)nc3ccccc3c2n1CCCCNC(=O)Nc1c(Cl)cccc1Cl [Example 118] |  | 10 µM | 10 µM
22 | COCCc1nc2c(N)nc3ccccc3c2n1CCCCNC(=O)Nc1ccccc1Br [Example 119] |  | 10 µM | 10 µM

Row | Compound | melting point | minimal effective concentration (interferon (α)) | minimal effective concentration [1]
23 | COCCc1nc2c(N)nc3ccccc3c2n1CCCCNC(=O)N(C)c1ccccc1 [Example 120] |  | 0.0001 µM | 0.01 µM
24 | COCCc1nc2c(N)nc3ccccc3c2n1CCCCNC(=O)N1CCOCC1 [Example 121] |  | 0.01 µM | 10 µM
25 | COCCc1nc2c(N)nc3ccccc3c2n1CCCCNC(=O)N1CCCC1 [Example 122] |  | 0.001 µM | 1 µM
26 | COCCc1nc2c(N)nc3ccccc3c2n1CCCCNC(=S)Nc1cccnc1 [Example 125] |  | 0.0001 µM | 10 µM
27 | COCCc1nc2c(N)nc3ccccc3c2n1CCCCNC(=S)Nc1ccc(N(C)C)c2ccccc12 [Example 126] |  | 0.0001 µM | 1 µM
28 | CCCNC(=S)NCCCCn1c(CCOC)nc2c(N)nc3ccccc3c21 [Example 127] |  | 0.0001 µM | 1 µM
29 | CCCCc1nc2c(N)nc3c(c2n1CCCCNC(=O)NC12CC4CC(CC(C4)C1)C2)CCCC3 [Example 132] |  | 0.01 µM | 1 µM
30 | CCCCc1nc2c(N)nc3c(c2n1CCCCNC(=O)NCc1ccccc1)CCCC3 [Example 133] |  | 0.1 µM | 10 µM
31 | COCCc1nc2c(N)nc3c(c2n1CCCCNC(=O)N(C)C)CCCC3 [Example 134] |  | 0.001 µM | 1 µM
32 | COCCc1nc2c(N)nc3c(c2n1CCCCNC(=O)N1CCOCC1)CCCC3 [Example 135] |  | 0.01 µM | 10 µM
33 | COCCc1nc2c(N)nc3c(c2n1CCCCNC(=O)Nc1ccccc1)CCCC3 [Example 136] |  | 0.0001 µM | 1 µM
34 | CCCCc1nc2c(N)nc3c(c2n1CCCCNC(=O)NS(=O)(=O)c1ccccc1)CCCC3 [Example 137] |  | 1 µM | 10 µM
35 | CCCCc1nc2c(N)nc3ccccc3c2n1CCNC(=O)NS(=O)(=O)c1ccc(F)cc1 [Example 139] |  | > 10 µM | > 10 µM
36 | CCCCc1nc2c(N)nc3ccccc3c2n1CCNC(=O)NS(=O)(=O)c1ccc(Cl)cc1 [Example 140] |  | 10 µM | > 10 µM
37 | COCCc1nc2c(N)nc3ccccc3c2n1CCCCNC(=O)NC(=O)c1ccccc1 [Example 141, N^1-{4-[4-Amino-2-(2-methoxyethyl)-1H-imidazo[4,5-c]quinolin-1-yl]butyl}-N^3-benzoylurea Trifluoroacetate] |  | > 10 µM | 10 µM
38 | COCCc1nc2c(N)nc3ccccc3c2n1CCCCNC(=O)OCc1ccccc1 [Example 142, N-{4-[4-Amino-2-(2-methoxyethyl)-1H-imidazo[4,5-c]quinolin-1-yl]butyl}carbamate Trifluoroacetate] |  | 0.0001 µM | 0.1 µM
39 | COCCc1nc2c(N)nc3ccccc3c2n1CCCCCCCCNC(=O)Nc1ccccc1 [Example 145, N-{8-[4-amino-2-(2-methoxyethyl)-1H-imidazo[4,5-c]quinolin-1-yl]octyl}-N′-phenylurea] |  | 0.01 µM | 0.04 µM
40 | CCCCc1nc2c(N)nc3ccccc3c2n1CCCNC(=O)Nc1ccccc1 [Example 146, N-[3-(4-amino-2-butyl-1H-imidazo[4,5-c]quinolin-1-yl)propyl]-N′-phenylurea] |  | 0.01 µM | 0.12 µM
41 | CCCCc1nc2c(N)nc3ccccc3c2n1CCCNC(=O)OC(C)(C)C [Example 147, tert-butyl 3-(4-amino-2-butiyl-1H-imidazo[4,5-c]quinolin-1-yl)propylcarbamate] |  | 0.01 µM | 0.12 µM
42 | COCCc1nc2c(N)nc3ccccc3c2n1CCCNC(=O)Nc1ccccc1 [Example 161, N-{3-[4-amino-2-(2-methoxyethyl)-1H-imidazo[4,5-c]quinolin-1-yl]propyl}-N′-phenylurea] |  | 0.01 µM | 0.01 µM
43 | COCCc1nc2c(N)nc3ccccc3c2n1CC(C)(C)CNC(=O)Nc1ccccc1 [Example 169, N-{3-[4-amino-2-(2-methoxyethyl)-1H-imidazo[4,5-c]quinolin-1-yl]-2,2-dimethylpropyl}-N′-phenylurea] |  | 0.01 µM | 0.01 µM
44 | CCCCCc1nc2c(N)nc3c(c2n1CCCCNC(=O)N1CCOCC1)CCCC3 [Example 172, N-[4-(4-amino-2-pentyl-6,7,8,9-tetrahydro-1H-imidazo[4,5-c]quinolin-1-yl)butyl]morpholine-4-carboxamide hydrochloride] |  | 0.01 µM | 0.37 µM
